Usually inhibition stands for how much of the control response was suppressed. A low value points to a response near the control.

From ChEMBL document CHEMBL1142315, “In silico screening and biological evaluation of inhibitors of Src-SH3 domain interaction with a proline-rich ligand” (Bioorg Med Chem Lett, 2008) come the findings set out here.

Test [1] addresses Proto-oncogene tyrosine-protein kinase Src (Homo sapiens) (UniProt P12931). Kind of test: Inhibition of interaction between human Src-SH3 domain and PRP2 at 100 uM by fluorescence polarization technique.
Test [2] shares this target. The experiment in a line: Inhibition of interaction between human Src-SH3 domain and PRP2 at 800 uM by fluorescence polarization technique. For orientation: Polarisation of emitted light reports the rotation of a fluorescent probe.

Calls of active or inactive are those of the source. The calls are words filed in the database; no cut-off is given here.

Sequence of Proto-oncogene tyrosine-protein kinase Src (Homo sapiens) (P12931 2-536 limits assumed): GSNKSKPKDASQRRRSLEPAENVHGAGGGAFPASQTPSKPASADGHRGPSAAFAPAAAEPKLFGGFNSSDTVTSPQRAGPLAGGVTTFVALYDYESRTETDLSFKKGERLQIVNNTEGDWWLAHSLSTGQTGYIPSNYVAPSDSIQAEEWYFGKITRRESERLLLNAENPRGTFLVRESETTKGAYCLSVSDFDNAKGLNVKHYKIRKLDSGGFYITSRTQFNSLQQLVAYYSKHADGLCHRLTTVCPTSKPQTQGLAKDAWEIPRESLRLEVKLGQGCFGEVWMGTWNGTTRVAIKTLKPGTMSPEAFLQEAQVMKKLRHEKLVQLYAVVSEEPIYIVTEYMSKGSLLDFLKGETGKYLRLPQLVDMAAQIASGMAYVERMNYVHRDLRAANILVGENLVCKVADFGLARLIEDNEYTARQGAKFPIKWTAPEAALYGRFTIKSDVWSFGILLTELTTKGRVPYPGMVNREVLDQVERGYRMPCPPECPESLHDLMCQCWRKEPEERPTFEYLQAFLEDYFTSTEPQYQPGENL

`COc1ccc(NCCNc2cc(C)nc3c2ccc2ccccc23)cc1OC` gave an inhibition in test [1] of 22%. For the same compound, the result in test [2] was Active.

With `Cc1cc(NCCNc2ccc3c(c2)OCCO3)c2ccc3ccccc3c2n1`, in test [2], the result was Active.
